“And” between values parts separate entries of the source, which are not always exact repeats. Identical values can stand only once. “Also recorded” adds a separate entry of the source. Like-named read-outs stand apart in the source and are kept apart here.
Tests used:
Type in all cases: cell-based, Staphylococcus aureus
MRSA (ATCC 33593) = assay: microbe, parasite or virus in culture
Text: (§1) MRSA (ATCC 33593), MSSA (ATCC 29213), and MRSA USA300 (BAA-1680) strains were purchased from the American Type Culture Collection (ATCC; Manassas, Va.). Eight clinical isolates of MRSA were obtained from the Culture Collection of Antimicrobial Resistant Microbes, Korea National Research Resource Center (KNRRC). Salmonella enterica Typhimurium LT2 was purchased from ATCC, and Escherichia coli O157:H7 is a kind gift from Dr. Sangryeol Ryu (Seoul National University, South Korea). All S. aureus strains were maintained in Trypticase Soy (TS) medium, and E. coli O157:H7 and Salmonella were routinely grown aerobically on Luria-Bertani (LB) media at 37° C. For measuring growth kinetics, an overnight culture of MRSA in Mueller-Hinton (MH) broth was diluted 100-fold in fresh MH broth and cultured until early exponential phase. The culture (200 μl) was transferred to each well of a sterile 96-well plate and incubated at 37° C. with bacitracin alone, alkyl gallate alone, and combination of bacitracin/alkyl gallates at various concentrations. The optical density at 600 nm (OD600) was measured every hour with FLUOstar® Omega (BMG Labtech, Germany).
(§2) Broth micro dilution assays were performed to determine the minimum inhibitory concentrations (MIC) accordance to the M7-A7 protocol of the Clinical and Laboratory Standards Institute (CLSI) guidelines^28. The susceptibility test was carried out with an initial bacterial inoculum of 1.5×10^5 CFU ml^−1. Alkyl gallates and bacitracin were serially diluted in a polystyrene 96 well plate and the plate was incubated at 37° C. for 24 h. Minimum bactericidal concentration (MBC) was determined by spotting 10 μl of cultures from MIC tests onto MH agar and incubated aerobically at 37° C.
(§3) MICs were determined with MRSA and methicillin-sensitive S. aureus (MSSA) using a broth dilution method as described above.
(§4) MRSA and MSSA were cultured overnight with antioxidants (0.5 μg/ml) and bacitracin at various concentrations and 10 μL of the culture was spotted on MH agar plates and incubated aerobically at 37° C. to observe the bacterial viability. The results in FIGS. 9A, 9B, 9C and 9D (photographs of plates) show the Minimal Bactericidal Concentrations (MBCs) for indicated antioxidants. Bacitracin killed MRSA and MSSA at concentrations greater than or equal to 2 μg/mi.

MSSA (ATCC 29213) = assay: MIC (broth dilution) and MBC (spotting) of phenolic antioxidants and bacitracin; details: for MIC: antioxidant alone
Text: as §1, §2, §3, §4

[1] = tested on: MRSA (normal MRSA strain, not USA300); assay: MRSA growth (optical density) with bacitracin and phenolic antioxidants; details: for growth of MRSA with bacitracin plus antioxidant: bacitracin 0.002 μg/mL, antioxidant 0.5 μg/mL, FIG. 6; for optical density of MRSA after 18 h culture: inhibition of growth in combination with bacitracin: bacitracin 0.002 μg/ml (ca. 0.0002 U), antioxidant 0.5 μg/ml, FIG. 8
Text: as §1
MRSA were grown with bacitracin (0.002 μg/mL) with antioxidant (as shown) at 0.5 μg/mL.
FIG. 7A is growth with no added bacitracin or lauryl gallate.
The optical density of MRSA was measured after 18 h culture with bacitracin (0.002 μg/ml) and antioxidants (as indicated at 0.5 μg/ml). Also measured were controls with no additions, with bacitracin alone and with antioxidant alone. FIGS. 8A, 8B, 8C and 8D are graphs illustrating the results.

MRSA 3795 = assay: microbe, parasite or virus in culture; details: Staphylococcus aureus
Text: as §1, §2

MRSA 3799 = assay: microbe, parasite or virus in culture; details: Staphylococcus aureus
Text: as §1, §2

MRSA 3823 = assay: microbe, parasite or virus in culture; details: Staphylococcus aureus
Text: as §1, §2

MRSA 3865 = assay: microbe, parasite or virus in culture; details: Staphylococcus aureus
Text: as §1, §2

MRSA 3876 = assay: microbe, parasite or virus in culture; details: Staphylococcus aureus
Text: as §1, §2

MRSA 3903 = assay: microbe, parasite or virus in culture; details: Staphylococcus aureus
Text: as §1, §2

MRSA 3A585 = assay: microbe, parasite or virus in culture; details: Staphylococcus aureus
Text: as §1, §2

MRSA 3095 = assay: microbe, parasite or virus in culture; details: Staphylococcus aureus
Text: as §1, §2

MRSA USA300 (BAA-1680) = assay: microbe, parasite or virus in culture; details: agent alone
Text: as §1, §2

[2] = Staphylococcus aureus, MRSA, antioxidant alone, read-out: MIC
[3] = Staphylococcus aureus, read-out: MIC
[4] = MRSA 3795 (human/nose), read-out: MIC
[5] = MRSA 3799 (human/nose), read-out: MIC
[6] = MRSA 3823 (human/nose), read-out: MIC
[7] = MRSA 3865 (human/skin), read-out: MIC
[8] = MRSA 3876 (human/skin), read-out: MIC
[9] = MRSA 3903 (human/skin), read-out: MIC
[10] = MRSA 3A585 (human/blood), read-out: MIC

With `Cc1cc(C(C)(C)C)c(O)c(C(C)(C)C)c1` [Butylated hydroxytoluene, butylated hydroxytoluene] as the compound, how does the “synergistic killing with bacitracin” value (MRSA (ATCC 33593); MRSA, antioxidant 0.5 μg/ml) read?
The value was “did not generate any synergistic killing”.

What about the MIC (MRSA (ATCC 33593); [2]) of the same compound?
The MIC was > 1020 µg/mL.

And the MIC (MSSA (ATCC 29213); [3])?
Its MIC is 1020 µg/mL.

What about the “synergistic killing with bacitracin” value (MSSA (ATCC 29213); antioxidant 0.5 μg/ml) of the same compound?
The value was “did not generate any synergistic killing”.

What about the MIC (MSSA (ATCC 29213)) of the same compound?
The MIC was >1024 µg/mL.

And the “growth of MRSA with bacitracin plus antioxidant” value [1]?
The value was “did not show any synergistic effects with bacitracin”.

What about the “optical density of MRSA after 18 h culture: inhibition of growth in combination with bacitracin” value ([1]; listed as BHT) of the same compound?
The value was “no synergistic inhibition of growth; also recorded: did not show any synergistic antimicrobial effects”.

Which results are given for `O=C(N[C@H](CO)[C@H](O)c1ccc([N+](=O)[O-])cc1)C(Cl)Cl` [CL, chloramphenicol]?
MIC (MRSA 3795; [4]): ≥ 128 µg/mL; MIC (MRSA 3799; [5]): ≥ 128 µg/mL; MIC (MRSA 3823; [6]): ≥ 128 µg/mL; MIC (MRSA 3865; [7]): ≥ 128 µg/mL; MIC (MRSA 3876; [8]): < 0.12 µg/mL; MIC (MRSA 3903; [9]): ≥ 128 µg/mL; MIC (MRSA 3A585; [10]): ≤ 0.25 µg/mL

`O=C(O)/C=C/c1ccc(O)c(O)c1` [Caffeic acid, caffeic acid] was tested. Which MIC (MRSA (ATCC 33593); [2]) did it give?
Its MIC is > 1020 µg/mL.

And the MIC (MSSA (ATCC 29213); [3])?
The MIC was > 1020 µg/mL.

How did the MIC (MRSA (ATCC 33593); MRSA, antioxidant alone) turn out when `Oc1cc(O)c2c(c1)OC(c1ccc(O)c(O)c1)C(O)C2` (stereo not drawn) [Catechin(+), catechin] was run?
The MIC was >1024 µg/mL.

And the MIC (MSSA (ATCC 29213))?
Its MIC is >1024 µg/mL.

`O=c1cc(-c2ccccc2)oc2cc(O)cc(O)c12` [Chrysin, chrysin] was tested. Which MIC (MRSA (ATCC 33593); [2]) did it give?
The MIC was > 1020 µg/mL.

What about the MIC (MSSA (ATCC 29213); [3]) of the same compound?
The MIC was > 1020 µg/mL.

For `O=C(O)C=Cc1ccccc1` [Cinnamic acid, cinnamic acid], which MIC (MRSA (ATCC 33593); [2]) is on record?
The MIC was > 1020 µg/mL.

And the MIC (MSSA (ATCC 29213); [3])?
Its MIC is > 1020 µg/mL.

What does the source list for `CC[C@H]1OC(=O)[C@H](C)[C@@H](O[C@H]2C[C@@](C)(OC)[C@@H](O)[C@H](C)O2)[C@H](C)[C@@H](O[C@@H]2O[C@H](C)C[C@H](N(C)C)[C@H]2O)[C@](C)(O)C[C@@H](C)C(=O)[C@H](C)[C@@H](O)[C@]1(C)O` [ERY, erythromycin]?
MIC (MRSA 3095; MRSA 3095 (human/skin), read-out: MIC): ≥ 128 µg/mL; MIC (MRSA 3795; [4]): ≥ 128 µg/mL; MIC (MRSA 3799; [5]): ≥ 128 µg/mL; MIC (MRSA 3823; [6]): ≥ 128 µg/mL; MIC (MRSA 3865; [7]): ≥ 128 µg/mL; MIC (MRSA 3876; [8]): ≥ 128 µg/mL; MIC (MRSA 3903; [9]): ≥ 128 µg/mL; MIC (MRSA 3A585; [10]): ≥ 4 µg/mL

Which MIC (MRSA (ATCC 33593); [2]) does the source give for `Oc1cc(O)c2c(c1)O[C@H](c1ccc(O)c(O)c1)[C@H](O)C2` [Epicatechin, epicatechin] here?
The MIC was > 1020 µg/mL.

What about the MIC (MSSA (ATCC 29213); [3]) of the same compound?
The MIC was > 1020 µg/mL.

What does the source list for `O=C(O[C@@H]1Cc2c(O)cc(O)cc2O[C@@H]1c1cc(O)c(O)c(O)c1)c1cc(O)c(O)c(O)c1` [Epigallocatechin gallate, epigallocatechin gallate]?
fold decrease of bacitracin MBC by antioxidant (MRSA (ATCC 33593); MRSA, antioxidant 0.5 μg/ml, compared to bacitracin alone): > 32 fold; MIC (MRSA (ATCC 33593); MRSA, antioxidant alone): 512 µg/mL and 256 µg/mL; fold decrease of bacitracin MBC by antioxidant (MSSA (ATCC 29213); antioxidant 0.5 μg/ml, compared to bacitracin alone): 16 fold; MIC (MSSA (ATCC 29213)): 128 µg/mL and 64 µg/mL; growth of MRSA with bacitracin plus antioxidant [1]: significantly inhibited the growth of MRSA; optical density of MRSA after 18 h culture: inhibition of growth in combination with bacitracin [1]: significantly inhibited MRSA

For `O=C(O)c1cc(O)c(O)c(O)c1` [Gallic acid, gallic acid], which MBC (MRSA USA300 (BAA-1680)) is on record?
Its MBC is 256 µg/mL.

And the MIC (MRSA USA300 (BAA-1680))?
The MIC was 128 µg/mL.

And the MIC (MRSA 3095; MRSA)?
The MIC was > 1020 µg/mL.

What about the MIC (MRSA 3795; MRSA) of the same compound?
Its MIC is > 1020 µg/mL.

What about the MIC (MRSA 3799; MRSA) of the same compound?
Its MIC is > 1020 µg/mL.

And the MIC (MRSA 3823; MRSA)?
Its MIC is > 1020 µg/mL.

And the MIC (MRSA 3865; MRSA)?
The MIC was > 1020 µg/mL.

What about the MIC (MRSA 3876; MRSA) of the same compound?
The MIC was > 1020 µg/mL.

What about the MIC (MRSA 3903; MRSA) of the same compound?
The MIC was > 1020 µg/mL.

And the MIC (MRSA 3A585; MRSA)?
Its MIC is > 1020 µg/mL.

And the MIC (MRSA (ATCC 33593); Staphylococcus aureus)?
Its MIC is > 1020 µg/mL.

And the MIC (MSSA (ATCC 29213); [3])?
The MIC was > 1020 µg/mL.

How did the MIC (MRSA (ATCC 33593); MRSA, antioxidant alone) turn out when `COc1ccc([C@@H]2CC(=O)c3c(O)cc(O[C@@H]4O[C@H](CO[C@@H]5O[C@@H](C)[C@H](O)[C@@H](O)[C@H]5O)[C@@H](O)[C@H](O)[C@H]4O)cc3O2)cc1O` [Hesperedin, hesperidin] was run?
The MIC was >1024 µg/mL.

What about the MIC (MSSA (ATCC 29213)) of the same compound?
The MIC was >1024 µg/mL.

Which results are given for `O=c1c(O)c(-c2ccc(O)cc2O)oc2cc(O)cc(O)c12` [Morin, morin]?
MIC (MRSA (ATCC 33593); [2]): > 1020 µg/mL; MIC (MSSA (ATCC 29213); [3]): > 1020 µg/mL

Source: patent US10420815B2, “Combinational therapy for synergistic inhibition of gram-positive and gram-negative bacteria” (priority 2015, dated 2019)
